Where “and” joins values, the source holds several entries; their conditions need not be identical. Equal entries are not always repeated.

In the first data set the test system is C. albicans ATCC 10231. The data set can be described thus: In vitro susceptibility testing, microdilution broth (EUCAST), C. albicans control strain. The format is cell-based, Candida albicans. The note with it: Candida albicans, ATCC10231, C. albicans ATCC 10231; mean and 95% confidence interval; read-out: IC50. The protocol:
(§1) The in vitro antifungal activity of the chalcones was evaluated by a microdilution broth method in accordance with the guidelines provided by the EUCAST Edef 7.3 [22]. Briefly, all strains were cultured on Sabauraud dextrose, then inocula, prepared at 0.5 McFarland, were diluted 1:20 in RPMI-1640 medium (Gibco®, ThermoFisher Scientific Inc., Waltham, MA, USA), containing glucose 2%, 0.3% levo-glutamine buffered to pH 7.0 with 0.165 M 3-(N-morpholino)propanesulfonic acid (MOPS) to yield 1-5 × 10^5 cells/mL. A total of 100 µL of the yeast suspension was inoculated in a 96-well microplate and incubated with 100 µL of serially 2-fold dilution of the compound in the range 200–6.25 µM. The following controls were included: yeast suspensions incubated in RPMI-1640 culture medium (positive growth control), or supplemented with dilutions of DMSO, or fluconazole (Sigma-Aldrich, St. Louis, MO, USA) as a commercial drug. To check the background turbidity of reagents and the sterility of the procedure, dilutions of each compound were incubated in RPMI-1640 culture medium, without yeast inoculum. The inoculated plate was incubated at 37 °C for 24 h, and subsequently the optical density at 630 nm was measured by the Multiskan Ascent microplate reader (Thermo Fisher Scientific Inc.). The effectiveness of the compounds was expressed as percent inhibition relative to the positive growth control when the inhibition […] the 50% at 100 µM. The IC50 value was determined by interpolation of the dose–response curves generated by plotting the percentages of growth inhibition, relative to the drug-free control (set to 100% of growth), as a function of the tested concentrations (on a logarithm scale). Statistical analysis was carried out by the nonlinear regression method using GraphPad Prism version 5.0 for Windows (GraphPad Software, San Diego, CA, USA). All assays were performed in triplicate and at least two independent experiments were carried out.
(Dilution methods test growth across graded concentrations, often in twofold steps.)
Take `O=C(/C=C/c1ccccc1)c1cc(Cl)ccc1O` [Compound 1, (E)-1-(5-Chloro-2-hydroxyphenyl)-3-phenylprop-2-en-1-one]: the IC50 came out at 52.8 µM.

As for `O=C(/C=C/c1cccc(F)c1)c1cc(Cl)ccc1O` [Compound 3, (E)-1-(5-Chloro-2-hydroxyphenyl)-3-(3-fluorophenyl)prop-2-en-1-one], the IC50 is 57.7 µM.

The same data set, now with this note: Candida albicans, ATCC10231, C. albicans ATCC 10231; mean and 95% confidence interval; read-out: IC50 [μg/mL].
Take `O=C(/C=C/c1ccccc1)c1cc(Cl)ccc1O` [Compound 1, (E)-1-(5-Chloro-2-hydroxyphenyl)-3-phenylprop-2-en-1-one]: the IC50 is 13.7 µg/mL.

`O=C(/C=C/c1cccc(F)c1)c1cc(Cl)ccc1O` [Compound 3, (E)-1-(5-Chloro-2-hydroxyphenyl)-3-(3-fluorophenyl)prop-2-en-1-one]: the IC50 worked out at 16 µg/mL.

The data set is the same for the next values; noted with them: Candida albicans, ATCC10231; at 100 μM; C. albicans ATCC 10231; 24 h.
Regarding `O=C(/C=C/c1ccccc1)c1cc(Cl)ccc1O` [Compound 1, (E)-1-(5-Chloro-2-hydroxyphenyl)-3-phenylprop-2-en-1-one], the inhibition (commonly the percentage by which the read-out fell short of the control) at 100 µM turned out to be 65.2 ± 3.9%.

As for `O=C(/C=C/c1cccc(F)c1)c1cc(Cl)ccc1O` [Compound 3, (E)-1-(5-Chloro-2-hydroxyphenyl)-3-(3-fluorophenyl)prop-2-en-1-one], testing at 100 µM gave an inhibition of 64.8 ± 1.5%.

System in a further data set: not listed separately
The data set can be described thus: Cytotoxicity test on Vero cells (WST8/CCK-8 cell viability). Format: cell-based, African green monkey. Particulars: African green monkey, Vero cells (ATCC CCL-81), Vero cells, mean and 95% confidence interval, read-out: CC50. The protocol: African green monkey kidney cells (Vero ATCC CCL-81) were cultured in Eagle’s Minimal Essential Medium (MEM) (Sigma-Aldrich), supplemented with 10% fetal bovine serum (FBS) (Carlo Erba Reagents, Milan, Italy), 100 U/mL penicillin, and 100 µg/mL streptomycin at 37 °C with 5% CO2. For experiments, cells were seeded into 96-well plates at 10^4 cells/well, and incubated at 37 °C for 24 h. Following washes with PBS, cell monolayer was incubated with 100 µL of serially 2-fold dilution of the compound in the range 200–6.25 µM. Both untreated cells and cells incubated with medium containing solvent dilutions were included in each experiment as controls.
The cell viability was assessed by a WST8-based assay according to the manufacturer’s instructions (CCK-8, Cell Counting Kit-8, Dojindo Molecular Technologies, Rockville, MD, USA). After 72 h of incubation, culture medium was removed from each well, the monolayer was washed with PBS, and 100 µL of fresh medium containing 10 µL of CCK-8 solution were added. Following a 2 h at 37 °C, the absorbance was measured at 450/630 nm; data were calculated as the percentage of the cell viability relative to the untreated controls.
A general note: Tetrazolium dyes change colour on reduction, which living cells bring about.
`O=C(/C=C/c1ccccc1)c1cc(Cl)ccc1O` [Compound 1, (E)-1-(5-Chloro-2-hydroxyphenyl)-3-phenylprop-2-en-1-one]: the CC50 at 72 h was determined as 174 µM.

`O=C(/C=C/c1cccc(F)c1)c1cc(Cl)ccc1O` [Compound 3, (E)-1-(5-Chloro-2-hydroxyphenyl)-3-(3-fluorophenyl)prop-2-en-1-one]: the CC50 at 72 h is 152 µM.

Staying with this data set, now noted: African green monkey, Vero cells (ATCC CCL-81), Vero cells, mean and 95% confidence interval, read-out: CC50 [μg/mL].
Take `O=C(/C=C/c1ccccc1)c1cc(Cl)ccc1O` [Compound 1, (E)-1-(5-Chloro-2-hydroxyphenyl)-3-phenylprop-2-en-1-one]: the CC50 at 72 h turned out to be 45 µg/mL.

Take `O=C(/C=C/c1cccc(F)c1)c1cc(Cl)ccc1O` [Compound 3, (E)-1-(5-Chloro-2-hydroxyphenyl)-3-(3-fluorophenyl)prop-2-en-1-one]: the CC50 at 72 h came to 42 µg/mL.

A further data set concerns C. albicans. The data set can be described thus: In vitro susceptibility testing, C. albicans clinical isolate. Format: cell-based. The note with it: Candida albicans; clinical isolate; mean and 95% confidence interval; read-out: IC50 C. albicans.
From the text: (§2) The yeasts included in the present study were Candida albicans ATCC 10231 (American Type Culture Collection) and a collection of yeasts recovered from a variety of clinical specimens, i.e., blood, urine, genital swabs, bronchoalveolar lavage, nail specimens, collected at the Microbiology Unit, St. Orsola Malpighi University Hospital, Bologna, Italy. The clinical strain isolates were identified by standard procedures, including colony morphology on chromogenic agar (CHROMagar Candida medium, Becton Dickinson, Heidelberg, Germany) and confirmed by MALDI Biotyper System using matrix-assisted laser desorption ionization–time of flight mass spectrometry (MALDI-TOF MS, Bruker Daltonik, GmbH, Germany).
as §1
In the case of `O=C(/C=C/c1ccccc1)c1cc(Cl)ccc1O` [Compound 1, (E)-1-(5-Chloro-2-hydroxyphenyl)-3-phenylprop-2-en-1-one], the IC50 is 62.9 µM and 16.3 µg/mL.

For the compound `O=C(/C=C/c1cccc(F)c1)c1cc(Cl)ccc1O` [Compound 3, (E)-1-(5-Chloro-2-hydroxyphenyl)-3-(3-fluorophenyl)prop-2-en-1-one], the IC50 is 100 µM and 27.7 µg/mL.

For the next data set, the system named is C. parapsilosis. Put plainly: In vitro susceptibility testing, C. parapsilosis clinical isolate. The format is cell-based. Particulars: Lodderomyces parapsilosis; clinical isolate; read-out: IC50 C. parapsilosis.
From the text: as §2, §1
In the case of `O=C(/C=C/c1ccccc1)c1cc(Cl)ccc1O` [Compound 1, (E)-1-(5-Chloro-2-hydroxyphenyl)-3-phenylprop-2-en-1-one], the IC50 is 200 µM and 51.7 µg/mL.

For `O=C(/C=C/c1cccc(F)c1)c1cc(Cl)ccc1O` [Compound 3, (E)-1-(5-Chloro-2-hydroxyphenyl)-3-(3-fluorophenyl)prop-2-en-1-one], the IC50 is 41.5 µM and 11.5 µg/mL.

The subject of another data set is C. lusitaniae. Put plainly: In vitro susceptibility testing, C. lusitaniae clinical isolate. Format: cell-based. The note with it: Clavispora lusitaniae; clinical isolate; read-out: IC50 C. lusitaniae.
From the text: as §2, §1
As for `O=C(/C=C/c1ccccc1)c1cc(Cl)ccc1O` [Compound 1, (E)-1-(5-Chloro-2-hydroxyphenyl)-3-phenylprop-2-en-1-one], the IC50 is 100 µM and 25.9 µg/mL.

Turning to `O=C(/C=C/c1cccc(F)c1)c1cc(Cl)ccc1O` [Compound 3, (E)-1-(5-Chloro-2-hydroxyphenyl)-3-(3-fluorophenyl)prop-2-en-1-one], the IC50 was 38.5 µM and 10.7 µg/mL.

The test system of another data set is C. tropicalis. Put plainly: In vitro susceptibility testing, C. tropicalis clinical isolate. Format: cell-based. Particulars: Candida tropicalis; clinical isolate; read-out: IC50 C. tropicalis.
From the text: as §2, §1
Turning to `O=C(/C=C/c1ccccc1)c1cc(Cl)ccc1O` [Compound 1, (E)-1-(5-Chloro-2-hydroxyphenyl)-3-phenylprop-2-en-1-one], the IC50 is 200 µM and 51.7 µg/mL.

As to `O=C(/C=C/c1cccc(F)c1)c1cc(Cl)ccc1O` [Compound 3, (E)-1-(5-Chloro-2-hydroxyphenyl)-3-(3-fluorophenyl)prop-2-en-1-one], the IC50 was > 200 µM and > 55.3 µg/mL.

The test system of another data set is C. krusei. Put plainly: In vitro susceptibility testing, C. krusei clinical isolate. Format: cell-based. The note with it: Pichia kudriavzevii; clinical isolate; read-out: IC50 C. krusei.
From the text: as §2, §1
For the compound `O=C(/C=C/c1ccccc1)c1cc(Cl)ccc1O` [Compound 1, (E)-1-(5-Chloro-2-hydroxyphenyl)-3-phenylprop-2-en-1-one], the IC50 is 200 µM and 51.7 µg/mL.

`O=C(/C=C/c1cccc(F)c1)c1cc(Cl)ccc1O` [Compound 3, (E)-1-(5-Chloro-2-hydroxyphenyl)-3-(3-fluorophenyl)prop-2-en-1-one]: the IC50 was > 200 µM and > 55.3 µg/mL.

The subject of a further data set is C. glabrata. Put plainly: In vitro susceptibility testing, C. glabrata clinical isolate. The format is cell-based. The note with it: Nakaseomyces glabratus; clinical isolate; read-out: IC50 C. glabrata.
From the text: as §2, §1
As for `O=C(/C=C/c1ccccc1)c1cc(Cl)ccc1O` [Compound 1, (E)-1-(5-Chloro-2-hydroxyphenyl)-3-phenylprop-2-en-1-one], the IC50 was 200 µM and 51.7 µg/mL.

As to `O=C(/C=C/c1cccc(F)c1)c1cc(Cl)ccc1O` [Compound 3, (E)-1-(5-Chloro-2-hydroxyphenyl)-3-(3-fluorophenyl)prop-2-en-1-one], the IC50 was > 200 µM and > 55.3 µg/mL.

For the next data set, the system named is C. utilis. Put plainly: In vitro susceptibility testing, C. utilis clinical isolate. Format: cell-based. Particulars: Williopsis jadinii; clinical isolate; read-out: IC50 C. utilis.
From the text: as §2, §1
Take `O=C(/C=C/c1ccccc1)c1cc(Cl)ccc1O` [Compound 1, (E)-1-(5-Chloro-2-hydroxyphenyl)-3-phenylprop-2-en-1-one]: the IC50 was 84.5 µM and 21.9 µg/mL.

`O=C(/C=C/c1cccc(F)c1)c1cc(Cl)ccc1O` [Compound 3, (E)-1-(5-Chloro-2-hydroxyphenyl)-3-(3-fluorophenyl)prop-2-en-1-one]: the IC50 was 100 µM and 27.7 µg/mL.

For the next data set, the system named is C. neoformans. The data set can be described thus: In vitro susceptibility testing, C. neoformans clinical isolate. The format is cell-based. Particulars: Cryptococcus neoformans; clinical isolate; read-out: IC50 C. neoformans.
From the text: as §2, §1
Turning to `O=C(/C=C/c1ccccc1)c1cc(Cl)ccc1O` [Compound 1, (E)-1-(5-Chloro-2-hydroxyphenyl)-3-phenylprop-2-en-1-one], the IC50 is 26.4 µM and 6.8 µg/mL.

Consider `O=C(/C=C/c1cccc(F)c1)c1cc(Cl)ccc1O` [Compound 3, (E)-1-(5-Chloro-2-hydroxyphenyl)-3-(3-fluorophenyl)prop-2-en-1-one], for which the IC50 is 35.2 µM and 9.7 µg/mL.

The test system of the next data set is S. clavata. Put plainly: In vitro susceptibility testing, S. clavata clinical isolate. The format is cell-based. The note with it: clinical isolate; read-out: IC50 S. clavata.
From the text: as §2, §1
For the compound `O=C(/C=C/c1ccccc1)c1cc(Cl)ccc1O` [Compound 1, (E)-1-(5-Chloro-2-hydroxyphenyl)-3-phenylprop-2-en-1-one], the IC50 was 200 µM and 51.7 µg/mL.

`O=C(/C=C/c1cccc(F)c1)c1cc(Cl)ccc1O` [Compound 3, (E)-1-(5-Chloro-2-hydroxyphenyl)-3-(3-fluorophenyl)prop-2-en-1-one]: the IC50 is 37.2 µM and 10.3 µg/mL.

The next data set deals with R. mucilaginosa. Put plainly: In vitro susceptibility testing, R. mucilaginosa clinical isolate. The note with it: clinical isolate; read-out: IC50 R. mucilaginosa. Format: cell-based.
From the text: as §2, §1
`O=C(/C=C/c1ccccc1)c1cc(Cl)ccc1O` [Compound 1, (E)-1-(5-Chloro-2-hydroxyphenyl)-3-phenylprop-2-en-1-one]: the IC50 was 83.7 µM and 21.7 µg/mL.

As for `O=C(/C=C/c1cccc(F)c1)c1cc(Cl)ccc1O` [Compound 3, (E)-1-(5-Chloro-2-hydroxyphenyl)-3-(3-fluorophenyl)prop-2-en-1-one], the IC50 is > 200 µM and > 55.3 µg/mL.

The record behind these values is paper PMC6359675, “Functionalization of the Chalcone Scaffold for the Discovery of Novel Lead Compounds Targeting Fungal Infections” (Molecules, 2019).
